Data taken from ChEMBL document CHEMBL5728758, “Heterocyclic compound as Syk inhibitor and/or Syk-HDAC dual inhibitor” (2021).

How the values were obtained:
[1] = target: Tyrosine-protein kinase SYK (Homo sapiens, UniProt P43405); test: Syk Kinase Activity Inhibitiory Experiment: Measure of SYK protein kinase activity was carried out by using the Caliper mobility shift assay. The compound was dissolved with DMSO and diluted with kinase buffer (20 mM HEPES pH 7.5, 0.01% Triton X-100, 5 mM MgCl2, 1 mM MnCl2, 2 mM DTT), and 5 μl of 5 times the final concentration of the compounds (10% DMSO) were added to 384 well plate. 10 μl of 2.5 fold enzyme (with SYK) solution was added and incubated at room temperature for 10 minutes, then 10 of 2.5 fold substrate (Peptide FAM-P22) and ATP) solution was added. The mixture was incubated for 30 minutes under 28° C., and 25 μl of stop buffer (100 mM HEPES pH 7.5, 0.015% Brij-35, 0.2% Coating Reagent #3, 50 mM EDTA) was added to terminate the reaction. Conversion rate data was read by Caliper EZ Reader II (Caliper Life Sciences). Conversion rate was converted to inhibition rate data (% inhibition rate=(max−conversion rate)/(max−min)*100). The max refers to the conversion rate of the DMSO control, and min refers to the conversion rate of the enzyme-free control. The curve was drawn with the compound concentration and inhibition rate as the horizontal and vertical coordinates, and the curve was fitted with the XLFit excel add-in version 4.3.1 Software, and IC50 was calculated.
Histone deacetylase 1 = Histone deacetylase 1 (Homo sapiens, UniProt Q13547); test: HDAC-1 and HDAC-6 Activity Inhibition Experiment: HDAC activity was measured by the Synergy MX Multi-Function Microplate Reader. The compounds were dissolved with DMSO, and transferred to a 384 well test plate using an Echo non-contact nanoscale sonic pipetting system. 15 μl of enzyme (HDAC1/HDAC6, respectively) solvent was added, and incubated at room temperature for 15 minutes, then 10 μl of substrate (trypsin and Ac-peptide) solution was added. Fluorescence intensity signal was read directly on Synergy MX (fluorescence excitation 355 nm, emission fluorescence 460 nm) after cultivated at room temperature for 60 minutes. Fluorescence intensity signal was convented into inhibition rate data (% inhibition rate=(max−fluorescence intensity)/(max−min)*100). The max refers to the fluorescence intensity of the DMSO control, and min refers to the fluorescence intensity of the enzyme-free control. The curve was drawn with the compound concentration and inhibition rate as the horizontal and vertical coordinates, and the curve was fitted with the GraphPad Prism V5.0 Software, and IC50 was calculated.
Chain of Histone deacetylase 1 (Q13547 whole entry): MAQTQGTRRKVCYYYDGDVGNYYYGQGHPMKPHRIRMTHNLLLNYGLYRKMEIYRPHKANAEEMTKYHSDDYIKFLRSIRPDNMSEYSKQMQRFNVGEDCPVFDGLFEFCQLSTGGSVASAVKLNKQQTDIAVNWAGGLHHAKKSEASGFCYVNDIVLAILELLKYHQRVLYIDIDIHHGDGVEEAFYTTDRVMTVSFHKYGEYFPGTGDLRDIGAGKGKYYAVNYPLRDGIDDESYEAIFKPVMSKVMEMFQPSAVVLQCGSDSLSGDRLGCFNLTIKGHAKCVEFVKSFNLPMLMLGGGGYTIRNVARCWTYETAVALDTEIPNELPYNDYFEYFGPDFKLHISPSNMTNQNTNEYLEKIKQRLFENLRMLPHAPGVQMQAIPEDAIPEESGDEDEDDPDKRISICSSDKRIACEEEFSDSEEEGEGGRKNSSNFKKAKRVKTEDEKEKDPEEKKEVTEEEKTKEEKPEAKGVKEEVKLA

SMILES: O=C(CCCCCCNC(=O)c1cccc(-c2cn3ccnc3c(Nc3ccc(N4CCOCC4)cc3)n2)c1)NO
- IC50 [1]: < 500 nM
- IC50 (Histone deacetylase 1): < 100 nM
